# Results taken from patent US20160238590A1, “COMPOSITIONS AND METHODS RELATED TO OAT SENSITIVITY” (IMMUSANT, INC., priority 2013, published 2016).
# Tests used:
# Format in all cases: cell-based, human
# [1] = system: Patient 8 TCC-01; experiment: IFN-γ ELISpot with T cell clone; conditions: TCC Patient 8 TCC-01, peptide 25 μg/mL
# Protocol: (§1) Peripheral blood mononuclear cells (PBMC) were isolated from heparinized whole blood using Ficoll-Paque™ Plus density-gradient centrifugation (GE Healthcare). IFN-γ ELISpot (Mabtech) was set up as previously described^8.
# (§2) Isolation of TCC from CD patients was carried out as previously described^8. Briefly, CFSE-labeled PBMC were incubated with antigen for 7 days in IMDM supplemented with 5% heat-inactivated pooled human serum (PHS), 2 mM GlutaMAX™, 100 μM MEM non-essential amino acids (both from Gibco, Invitrogen), and 50 μM 2-mercaptoethanol (Sigma). Proliferated cells were single-cell sorted into 96-well plates containing IL-2, IL-4, anti-CD3 mAb, irradiated feeder cells (allogeneic PBMC and JY-EBV). TCC were expanded and maintained in IL-2 and IL-4 and tested for specificity by ELISpot with irradiated HLA-matched PBMC as antigen-presenting cells. Expanded clones were tested for HLA-DQ restriction, TCR Vbeta usage, and with lysine scans to work out minimal epitopes. See Table 1 below for TCC and epitope information.
# [2] = system: Patient 6 TCC-01; experiment: IFN-γ ELISpot with T cell clone; conditions: for IFN-γ ELISpot response (raw SFU): TCC Patient 6 TCC-01 (Table 5), mean no antigen 2
# Protocol: as §1, §2
# [3] = system: Patient 2 TCC-01; experiment: IFN-γ ELISpot with T cell clone; conditions: for IFN-γ ELISpot response (raw SFU): TCC Patient 2 TCC-01 (Table 5), mean no antigen 1.1
# Protocol: as §1, §2
# [4] = system: Patient 2 TCC-03; experiment: IFN-γ ELISpot with T cell clone; conditions: TCC Patient 2 TCC-03, peptide 25 μg/mL
# Protocol: as §1, §2
# [5] = system: Patient 2 TCC-02; experiment: IFN-γ ELISpot with T cell clone; conditions: TCC Patient 2 TCC-02, peptide 25 μg/mL
# Protocol: as §1, §2
# [6] = system: PBMC; experiment: IFN-γ ELISpot on PBMC of CD patients on day 6 after 3-day oats challenge; conditions: after 3-day oats challenge
# Excerpt: (§3) Australian Caucasian HLA-DQ2.5^+ and/or HLA-DQ8^+ CD subjects were recruited by advertisement in the Coeliac Society of Victoria newsletter and all had biopsy-proven CD conforming to ESPGHAN criteria. Patients had been on strict gluten free diet for at least 4 weeks prior to commencing grain challenge. Patients underwent 3-day grain challenge with oats, barley, or combined wheat, barley, and rye muffins, and 6 days after commencement, blood was collected. Day 0 responses were not observed in the selection of patients tested, as described previously^8.
# (§4) Oats challenge consisted of 100 g dry weight daily of one of three commercial brands of oats: one not tested for wheat contamination (Uncle Toby's; Oats #1), and two shown by R5 ELISA to contain less than 20 ppm wheat gluten (Tilquhilie Pudding; Oats #2 and Freedom Food; Oats #3). Barley challenge consisted of pearl barley (Ward McKenzie) cooked into a risotto (150 g dry weight daily) and the wheat challenge consisted of four 50 g slices of wheat bread daily (Baker's Delight white loaf cut to toasting thickness). The combined wheat, barley, and rye challenge consisted of muffins baked with wheat flour (White Wings), barley flour (Four Leaf Milling), and rye flour (Four Leaf Milling; 22-25 g dry weight each daily). A symptom diary based on a […] Likert scale was completed by participants daily from baseline until day 6.
# (§5) Two avenin peptide libraries were utilized for epitope screening. These were designed using avenin sequences from GenBank and a customized algorithm, as previously described^9. The initial library consisted of 199 screening-grade 20 mers including all possible 12 mers (Mimotopes). This library was screened with and without tTG pre-treatment. The second library consisted of additional avenin sequences that were synthesized with glutamate substitution at sites predicted to be deamidated by published algorithms^10, 11 removing the requirement for tTG treatment. This library contained 369 screening-grade 20 mers, including all possible 12 mers (Pepscan). The second round avenin library contained wild-type and deamidated versions of the most immunogenic sequences (25 high quality 16 mers from Mimotopes). High quality peptides containing previously described immunogenic sequences from wheat, barley, and rye were used to test for cross-reactivity^8 (Pepscan). High quality hordein and avenin peptides for TCC testing and biochemical studies were ordered from Pepscan, Mimotopes, or GL Biochem.
# as §1
# [7] = system: Patient 14 TCC-01; experiment: IFN-γ ELISpot with T cell clone; conditions: TCC Patient 14 TCC-01 (Table 5); mean no antigen 11.3, high background, SFU >25 considered as positive responses
# Protocol: as §1, §2
# [8] = system: PBMC; experiment: IFN-γ ELISpot on PBMC of CD patients after 3-day barley challenge; conditions: after barley challenge
# Excerpt: as §3, §4, §5, §1
# [9] = TCC Patient 6 TCC-01, peptide 25 μg/mL
# [10] = TCC Patient 2 TCC-01, peptide 25 μg/mL
Sequence,"IFN-γ ELISpot response (raw SFU) ([6]; patient P1, peptide 1 μg/ml)","IFN-γ ELISpot response (raw SFU) ([6]; patient P1, peptide 10 μg/ml)","IFN-γ ELISpot response (raw SFU) ([6]; patient P1, peptide 100 μg/ml)","IFN-γ ELISpot response (raw SFU) ([6]; patient P2, peptide 1 μg/ml)","IFN-γ ELISpot response (raw SFU) ([6]; patient P2, peptide 10 μg/ml)","IFN-γ ELISpot response (raw SFU) ([6]; patient P2, peptide 100 μg/ml)","significant SFU as a percentage of maximal peptide SFU ([6]; patient P2, peptide 100 μg/ml)","IFN-γ ELISpot response (raw SFU) ([6]; patient P3, peptide 1 μg/ml)","IFN-γ ELISpot response (raw SFU) ([6]; patient P3, peptide 10 μg/ml)","IFN-γ ELISpot response (raw SFU) ([6]; patient P3, peptide 100 μg/ml)","IFN-γ ELISpot response (raw SFU) ([6]; patient P11, peptide 1 μg/ml)","IFN-γ ELISpot response (raw SFU) ([6]; patient P11, peptide 10 μg/ml)","IFN-γ ELISpot response (raw SFU) ([6]; patient P11, peptide 100 μg/ml)","IFN-γ ELISpot response (raw SFU) ([6]; patient P12, peptide 1 μg/ml)","IFN-γ ELISpot response (raw SFU) ([6]; patient P12, peptide 10 μg/ml)","IFN-γ ELISpot response (raw SFU) ([6]; patient P12, peptide 100 μg/ml)","IFN-γ ELISpot response (raw SFU) ([6]; patient P13, peptide 50 μg/ml)",IFN-γ ELISpot response (raw SFU) [2],IFN-γ ELISpot response (raw SFU) [3],IFN-γ ELISpot response (raw SFU) [7],also measured
SEQYQPYPEQEQPFV [DQ2.5-ave-1b],–,–,–,–,–,–,–,–,–,–,–,–,–,–,–,–,–,–,–,–,"IFN-γ ELISpot response (SFU) [1]: 50 SFU; significant SFU as a percentage of maximal peptide SFU [1]: * (*: 20-40%); IFN-γ ELISpot response (SFU) [2, 9]: 30 SFU; significant SFU as a percentage of maximal peptide SFU [2, 9]: * (*: 20-40%); IFN-γ ELISpot response (SFU) [3, 10]: 240 SFU; significant SFU as a percentage of maximal peptide SFU [3, 10]: *** (***: >70%); IFN-γ ELISpot response (SFU) [4]: 1 SFU; IFN-γ ELISpot response (SFU) [5]: 102 SFU; significant SFU as a percentage of maximal peptide SFU [5]: * (*: 20-40%)"
"QYQPYPEQQQPILQQQ [avenin peptide, Genbank AAB32025 (7-22), wild-type]",2 SFU,11 SFU,11 SFU,2 SFU,10 SFU,23 SFU,** (**: 40-70%),1 SFU,25 SFU,4 SFU,2 SFU,11 SFU,4 SFU,1 SFU,3 SFU,7 SFU,2 SFU,3 SFU,79 SFU,22 SFU,"significant SFU as a percentage of maximal peptide SFU ([6]; patient P1, peptide 10 μg/ml): * (*: 20-40%); significant SFU as a percentage of maximal peptide SFU ([6]; patient P1, peptide 100 μg/ml): * (*: 20-40%); significant SFU as a percentage of maximal peptide SFU ([6]; patient P3, peptide 10 μg/ml): ** (**: 40-70%); significant SFU as a percentage of maximal peptide SFU ([6]; patient P11, peptide 10 μg/ml): (^: 10-20%); significant SFU as a percentage of maximal peptide SFU ([6]; patient P11, peptide 100 μg/ml): ** (**: 40-70%)"
QYQPYPEQEQPILQQQ [partially deamidated avenin peptide containing DQ2.5-ave-1c],11 SFU,33 SFU,11 SFU,6 SFU,34 SFU,38 SFU,*** (***: >70%),19 SFU,26 SFU,18 SFU,3 SFU,41 SFU,50 SFU,1 SFU,39 SFU,31 SFU,4 SFU,5 SFU,288 SFU,21 SFU,"significant SFU as a percentage of maximal peptide SFU ([6]; patient P1, peptide 1 μg/ml): * (*: 20-40%); significant SFU as a percentage of maximal peptide SFU ([6]; patient P1, peptide 10 μg/ml): *** (***: >70%); significant SFU as a percentage of maximal peptide SFU ([6]; patient P1, peptide 100 μg/ml): * (*: 20-40%); significant SFU as a percentage of maximal peptide SFU ([6]; patient P2, peptide 10 μg/ml): ** (**: 40-70%); significant SFU as a percentage of maximal peptide SFU ([6]; patient P3, peptide 1 μg/ml): * (*: 20-40%); significant SFU as a percentage of maximal peptide SFU ([6]; patient P3, peptide 10 μg/ml): ** (**: 40-70%); significant SFU as a percentage of maximal peptide SFU ([6]; patient P3, peptide 100 μg/ml): * (*: 20-40%); significant SFU as a percentage of maximal peptide SFU ([6]; patient P11, peptide 10 μg/ml): *** (***: >70%); significant SFU as a percentage of maximal peptide SFU ([6]; patient P11, peptide 100 μg/ml): *** (***: >70%); significant SFU as a percentage of maximal peptide SFU ([6]; patient P12, peptide 10 μg/ml): ** (**: 40-70%); significant SFU as a percentage of maximal peptide SFU ([6]; patient P12, peptide 100 μg/ml): ** (**: 40-70%); IFN-γ ELISpot response (raw SFU) ([8]; Patient 1, peptide 50 μg/ml): 58 SFU; significant SFU as a percentage of maximal peptide SFU ([8]; Patient 1, peptide 50 μg/ml): ^^ (^^: 10-20%); IFN-γ ELISpot response (raw SFU) ([8]; Patient 2, peptide 50 μg/ml): 220 SFU; significant SFU as a percentage of maximal peptide SFU ([8]; Patient 2, peptide 50 μg/ml): *** (***: >70%); IFN-γ ELISpot response (raw SFU) ([8]; Patient 3, peptide 50 μg/ml): 34 SFU; significant SFU as a percentage of maximal peptide SFU ([8]; Patient 3, peptide 50 μg/ml): * (*: 20-40%)"
"SEQYQPYPEQQQPFVQ [avenin peptide, wild-type]",2 SFU,2 SFU,4 SFU,4 SFU,1 SFU,16 SFU,* (*: 20-40%),1 SFU,2 SFU,4 SFU,0 SFU,0 SFU,0 SFU,0 SFU,1 SFU,4 SFU,1 SFU,1 SFU,100 SFU,11 SFU,–
SEQYQPYPEQEQPFVQ [deamidated avenin peptide containing DQ2.5-ave-1b],24 SFU,18 SFU,10 SFU,5 SFU,9 SFU,24 SFU,** (**: 40-70%),4 SFU,7 SFU,2 SFU,0 SFU,3 SFU,0 SFU,2 SFU,4 SFU,2 SFU,13 SFU,12 SFU,295 SFU,10 SFU,"significant SFU as a percentage of maximal peptide SFU ([6]; patient P1, peptide 1 μg/ml): *** (***: >70%); significant SFU as a percentage of maximal peptide SFU ([6]; patient P1, peptide 10 μg/ml): ** (**: 40-70%); significant SFU as a percentage of maximal peptide SFU ([6]; patient P13, peptide 50 μg/ml): * (*: 20-40%); IFN-γ ELISpot response (raw SFU) ([8]; Patient 1, peptide 50 μg/ml): 77 SFU; significant SFU as a percentage of maximal peptide SFU ([8]; Patient 1, peptide 50 μg/ml): * (*: 20-40%); IFN-γ ELISpot response (raw SFU) ([8]; Patient 2, peptide 50 μg/ml): 225 SFU; significant SFU as a percentage of maximal peptide SFU ([8]; Patient 2, peptide 50 μg/ml): *** (***: >70%); IFN-γ ELISpot response (raw SFU) ([8]; Patient 3, peptide 50 μg/ml): 36 SFU; significant SFU as a percentage of maximal peptide SFU ([8]; Patient 3, peptide 50 μg/ml): * (*: 20-40%)"
